Experimental data published in publication PMC7413254 (Nature Communications, 2020).
Where “and” joins values, the source holds several entries; their conditions need not be identical. Equal values may be shown once.

Legend:
non-expressing oocytes [1] = test: cells; format: cell-based, Xenopus laevis
Description: (§1) The orientation of PfCRT in the parasite’s DV membrane, and also in the oocyte plasma membrane, is such that its N- and C-termini extend into the cytosol. The oocytes were suspended in a reaction buffer adjusted to pH 5.5 to mimic the pH of the DV lumen[1],[2]. In this scenario, the transport of a substrate via PfCRT from the acidic extracellular solution into the oocyte cytosol[15] is analogous to the parasite’s PfCRT-mediated efflux of a substrate from the acidic DV and into the cytosol. Unless specified otherwise, this is the direction in which substrate transport was measured in the oocyte assays.
(§2) Unless specified otherwise, the transport assays were conducted over 1.5 h at 27.5 °C and the reaction buffer was ND96 (96 mM NaCl, 2 mM KCl, 1 mM MgCl2, 1.8 mM CaCl2, 10 mM MES and 10 mM Tris-base) at pH 5.5.
(§3) Ten oocytes were washed twice with the relevant ND96 buffer. […] The assay was terminated by removing the reaction buffer and washing the oocytes with ice-cold ND96 buffer. The oocytes were lysed in 10% (w/v) sodium dodecyl sulfate (SDS) and the radioactivity accumulated within each oocyte was measured with a MicroBeta^2 microplate liquid scintillation analyser (PerkinElmer).
(§4) At least four independent experiments were performed (on different days and using oocytes from different frogs), and within each experiment measurements were made from ten oocytes per treatment.

PfCRT^3D7 [2] = target: T1, PfCRT^3D7 (Plasmodium falciparum, UniProt Q8IBZ9); test: cell-based; format: cell-based
Description: as §1, §2, §3, §4

non-expressing oocytes [3] = format: cell-based, Xenopus laevis
Method: as §2
The intracellular concentrations were calculated using previous estimates of the volume of stage V–VI oocytes (~400 nL[60]). […] The oocytes were injected with VF-6 suspended in 25 nL ND96 buffer adjusted to pH 5.0, 5.5, 6.0 or 7.0, which corresponded to the injection of 2.5–250 fmol of H^+. The Na^+-dependence of the trans-stimulatory effect of VF-6 was assessed by injecting the oocytes with VF-6 suspended in ND96 buffer (pH 5.5) or a Na^+-free version of this buffer (the Na^+ was replaced with choline).
as §4

PfCRT^3D7 [4] = target: T1, PfCRT^3D7; test: cell-based; format: cell-based; remark: listed apart in the source
In short: (§5)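 Transport measured in Xenopus oocytes expressing the transporters, 1.5 h at 27.5 °C in ND96 pH 5.5 unless noted. For trans-stimulation, VF-6 injected in 25 nL ND96 at pH 5.0–7.0 or Na^+-free (choline) buffer; intracellular levels based on ~400 nL oocyte volume. Ten oocytes per treatment, ≥4 experiments.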

PfNT1 = target: T2, PfNT1 (Plasmodium falciparum, UniProt Q8IDM6); test: cell-based; format: cell-based
T2 construct: expressed in transfected cells; host or cells: Xenopus laevis oocytes (stage V-VI), cRNA-injected
In short: as §5

T2 sequence (Q8IDM6 whole entry): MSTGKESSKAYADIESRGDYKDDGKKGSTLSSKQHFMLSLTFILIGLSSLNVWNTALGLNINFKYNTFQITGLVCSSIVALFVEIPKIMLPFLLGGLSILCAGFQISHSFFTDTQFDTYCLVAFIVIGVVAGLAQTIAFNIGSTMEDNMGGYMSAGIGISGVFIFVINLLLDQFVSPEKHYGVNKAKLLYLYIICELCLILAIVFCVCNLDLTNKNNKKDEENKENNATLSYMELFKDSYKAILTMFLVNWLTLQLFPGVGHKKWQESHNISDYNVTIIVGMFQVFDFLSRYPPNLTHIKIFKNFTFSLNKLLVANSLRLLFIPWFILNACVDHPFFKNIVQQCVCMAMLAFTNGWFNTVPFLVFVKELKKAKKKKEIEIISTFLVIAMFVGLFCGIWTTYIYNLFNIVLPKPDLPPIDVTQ
T1 sequence (Q8IBZ9 59-398): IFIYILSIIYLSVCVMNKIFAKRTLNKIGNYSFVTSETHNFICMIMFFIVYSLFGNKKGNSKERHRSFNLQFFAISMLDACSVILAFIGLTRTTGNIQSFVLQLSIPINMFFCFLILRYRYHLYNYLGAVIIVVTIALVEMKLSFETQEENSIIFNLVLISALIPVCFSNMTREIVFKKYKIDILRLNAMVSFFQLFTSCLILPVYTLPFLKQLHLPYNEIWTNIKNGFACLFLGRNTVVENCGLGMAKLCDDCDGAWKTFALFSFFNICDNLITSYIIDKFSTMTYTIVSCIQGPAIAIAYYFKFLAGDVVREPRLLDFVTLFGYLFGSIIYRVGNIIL

| Compound | Cis-inhibition data: total [3H]CQ transport, normalised to the oocyte type control (non-expressing oocytes [1]) | Total [3H]CQ transport, cis-inhibition by solute (non-expressing oocytes [1]) | Cis-inhibition data: total [3H]CQ transport, normalised to the oocyte type control (PfCRT^3D7 [2]) | Total [3H]CQ transport, cis-inhibition by solute (PfCRT^3D7 [2]) | Total [3H]CQ transport, trans-stimulation by injected solute (non-expressing oocytes [3]) | Trans-stimulation data: total [3H]CQ transport, normalised to the oocyte type control (non-expressing oocytes [3]) | PfCRT-mediated [3H]CQ transport, trans-stimulation by injected solute, PfCRT3D7 (PfCRT^3D7 [4]) | Total [3H]CQ transport, trans-stimulation by injected solute (PfCRT^3D7 [4]) | Trans-stimulation data: PfCRT-mediated [3H]CQ transport (PfCRT^3D7 [4]) | Trans-stimulation data: total [3H]CQ transport, normalised to the oocyte type control (PfCRT^3D7 [4]) | Total [3H]CQ transport, trans-stimulation by injected solute (PfNT1) | Trans-stimulation data: total [3H]CQ transport, normalised to the oocyte type control (PfNT1) | Cis-inhibition data: total [3H]CQ transport in the presence of the solute (non-expressing oocytes [1]) | Cis-inhibition data: total [3H]CQ transport in the presence of the solute (PfCRT^3D7 [2]) | Total [3H]CQ transport, trans-stimulation by solute (non-expressing oocytes [3]) | Trans-stimulation data: total [3H]CQ transport with the solute injected (non-expressing oocytes [3]) | Total [3H]CQ transport, trans-stimulation by solute (PfCRT^3D7 [4]) | Trans-stimulation data: total [3H]CQ transport with the solute injected (PfCRT^3D7 [4]) | Total [3H]CQ transport, trans-stimulation by solute (PfNT1) | Trans-stimulation data: total [3H]CQ transport with the solute injected (PfNT1) |
| --- | --- | --- | --- | --- | --- | --- | --- | --- | --- | --- | --- | --- | --- | --- | --- | --- | --- | --- | --- | --- |
| N[C@@H](CCC(=O)N[C@@H](CS)C(=O)NCC(=O)O)C(=O)O [Reduced glutathione (GSH)] | 99 ± 4.6 and 99 ± 4.5 and 101 ± 2.2 | 2.8 ± 0.2 and 2.6 ± 0.08 and 3.2 ± 0.08 | 100 ± 5.5 and 101 ± 3.7 and 100 ± 4.7 | 2.7 ± 0.06 and 3.1 ± 0.08 and 3.3 ± 0.07 | 2.7 ± 0.05 and 2.9 ± 0.05 | 99 ± 4.9 and 101 ± 4.7 | 0.2 ± 0.03 and 0.2 ± 0.01 | 3.2 ± 0.03 | 96 ± 3.7 and 98 ± 3.9 | 98 ± 4.3 and 100 ± 3.8 | 3.8 ± 0.07 and 2.7 ± 0.06 | 98 ± 3.8 and 99 ± 4.4 |  |  |  |  |  |  |  |  |
| CC[N+](CC)(CC)CC [Tetraethyl ammonium] |  | 2.2 ± 0.03 and 3.3 ± 0.08 and 2.8 ± 0.03 |  | 2.7 ± 0.06 and 3.2 ± 0.08 and 3.7 ± 0.02 |  |  | 0.6 ± 0.02 and 0.7 ± 0.01 |  | 97 ± 2.2 and 99 ± 2.6 |  |  |  | 99 ± 4.8 and 101 ± 4.7 and 99 ± 3.6 | 98 ± 5.7 and 101 ± 5.2 and 98 ± 5.2 | 2.5 ± 0.04 and 3.0 ± 0.04 | 99 ± 3.5 and 98 ± 5.7 | 3.6 ± 0.05 and 3.7 ± 0.05 | 99 ± 0.3 and 101 ± 3.7 | 3.2 ± 0.1 and 2.8 ± 0.02 | 99 ± 3.5 and 100 ± 3.6 |
